How the values were obtained:
[1] = tested on: mice with OVA-induced chronic asthma; assay: Inflammatory cell counts in BAL fluid, severe (chronic) asthma model; type: in vivo
Protocol: In a longer (chronic) murine model, mice were challenged 3 times a week for 4-5 weeks.
Bronchoalveolar lavage (BAL) fluid (also referred to herein as “BALf”) and bronchial submucosal inflammation are characteristic features of asthma. Mice were euthanized with an overdose of 50 mg/kg pentobarbital and ice-cold phosphate buffer saline (PBS) (0.6 ml) was instilled into the lungs. BAL fluid was obtained by three aspirations via tracheal cannulation, centrifuged, and the supernatant collected and stored at −70° C. Cell pellets were re-suspended in PBS and 100 μl aliquots placed onto slides and centrifuged (200 g, 4° C., 10 minutes) in a cytospin machine. Induction of oxidative stress was evaluated using a 2′,7′-dichlorofluorescein fluorescence assay, and total IgE, IgG2a, panel of cytokines, transforming growth factors, collagen, protein nitration and lipid peroxidation were measured using commercial kits according to the manufacturer's recommendations. […]
3-CP was administered orally (1 weight percent in chow) during the entire experiment, and dexamethasone (Dex) was administered via IP injection (1 mg/kg) one hour before each challenge. Inflammatory cell counts and pulmonary collagen content were then evaluated according to procedures described hereinabove, in order to assess effects on inflammation and remodeling, respectively.

[2] = tested on: ovalbumin-induced murine model of asthma; assay: Lung resistance / airway hyper-responsiveness to methacholine in OVA asthma model; type: in vivo, BALB/c mice
Protocol: (§1) All experimental procedures were carried out in accordance with the NIH Guidelines for the Care and Use of Laboratory Animals. Specific pathogen-free (SPF) male BALB/c mice (6-7 weeks of age, 18-22 grams), routinely screened serologically for relevant respiratory pathogens, were maintained in an animal housing facility for 1 week before use and given access to food and water ad libitum. Animals were randomly assigned to the indicated experimental groups, and sensitized with two intraperitoneal (IP) injections (20 μg ovalbumin (OVA) emulsified in 2 mg aluminum hydroxide (an adjuvant) in 200 μl phosphate buffer saline (PBS), pH 7.4), on days 1 and 10.
(§2) After another week, the animals were challenged by exposure to ovalbumin (OVA) aerosol (1%, w/v, in PBS) for 30 minutes each day on days 17, 18 and 19, in order to elicit an inflammatory reaction in the lungs characterized by airway hyper-responsiveness (AHR), an influx of inflammatory cells (particularly eosinophils), and increased pulmonary levels of various cytokines and transforming growth factors, protein nitration and lipid peroxidation.
The features of allergic inflammation typically reached their peak a day or two after the final exposure. Mice were then subjected to one of the following treatments: (i) sham-sensitization plus challenge with PBS; (ii) positive control-sensitization plus challenge with OVA; (iii) sensitization plus challenge with OVA and various indicated treatments (e.g., with nitroxide or dexamethasone), including different modes (oral, IP, intranasal, inhalation), time windows (sensitization stage, challenge stage, both stages and after the last challenge), and doses of nitroxide administration.
One day after the final challenge, respiratory activity and airway hyper-responsiveness (AHR) of experimental animals were evaluated. Whole body plethysmographs for enhanced pause (Penh) measurements are often used for assessment of AHR. However, critics have questioned the validity of Penh measurements, which supposedly measure airway obstruction of live non-sedated mice, stating that it is likely to measure the distress of the animal rather than actual obstruction. […] In brief, mice were sedated with an intraperitoneal (IP) injection of xylazine hydrochloride and anaesthetized with IP injection of pentobarbital. Subsequently, the animals were tracheostomized using an 18 gauge cannula, ventilated with a FlexiVent™ apparatus (SCIREQ), and muscle paralysis was induced with pancuronium bromide. The mice were ventilated in a quasi-sinusoidal fashion with the following settings: a tidal volume of 10 ml/kg, maximum inflation pressure of […] (30 cm H2O), a positive end expiratory pressure (PEEP) of 3 millibar and a frequency of 150 per minute. Following an equilibration period of 3 minutes of tidal ventilation, two lung inflations to a transrespiratory pressure of 2.5 millibar were performed and baseline measurements were taken. Airway hyper-responsiveness (AHR) was determined by aerosolizing increasing concentrations of methacholine. After baseline determination of airway resistance, mice were challenged with 0 to 64 mg/mL methacholine nebulized directly into the ventilatory circuit using an AeroNeb™ Lab nebulizer system (SCIREQ). Two models of respiratory mechanics were used to assess lung resistance: a linear 1st-order single compartment model and a constant-phase model. All data points were collected with FlexiVent™ software (SCIREQ). […]

[3] = previously established; cited from earlier work
[4] = tested on: IL-13; assay: IL-13 level in OVA asthma model; type: in vivo, BALB/c mice; details: for IL-13 level: lung tissue (table title)
Protocol: as §1, §2
Bronchoalveolar lavage (BAL) fluid (also referred to herein as “BALf”) and bronchial submucosal inflammation are characteristic features of asthma. Mice were euthanized with an overdose of 50 mg/kg pentobarbital and ice-cold phosphate buffer saline (PBS) (0.6 ml) was instilled into the lungs. BAL fluid was obtained by three aspirations via tracheal cannulation, centrifuged, and the supernatant collected and stored at −70° C. Cell pellets were re-suspended in PBS and 100 μl aliquots placed onto slides and centrifuged (200 g, 4° C., 10 minutes) in a cytospin machine. Induction of oxidative stress was evaluated using a 2′,7′-dichlorofluorescein fluorescence assay, and total IgE, IgG2a, panel of cytokines, transforming growth factors, collagen, protein nitration and lipid peroxidation were measured using commercial kits according to the manufacturer's recommendations. A Sircol™ collagen assay kit was obtained from Biocolor Life Sciences Assays, a protein nitration assay kit was obtained from Abcam, and other assay kits were obtained from PeproTech Asia.
The efficacy of oral administration of 3-CP (1 weight percent in chow) during the sensitization period and/or challenge period was then compared to IP injection (˜300 mg/kg, 0.5 hour before the OVA challenge) or intranasal instillation (˜150 mg/kg, 0.5 hour before the OVA and 6 hours later) of 3-CP, as well as to dexamethasone treatment (1 mg/kg, 3 daily IP injections, 0.5 hour prior to the challenge with OVA aerosol).
In order to assess the effect of 3-CP on inflammatory signaling pathways, […] to procedures described hereinabove, upon oral, intranasal or IP administration of 3-CP.

[5] = Toxicity / maximally tolerated dose in mice; type: in vivo; details: administered orally or via IP injection to untreated OVA-challenged mice for 22 days
Protocol: 3-CP was also administered using 3 daily intraperitoneal (IP) injections (200 μl, 0.15 M, ˜300 mg/kg) 0.5 hour prior to the challenge with OVA aerosol, or by nasal instillation (50 μl, 0.3 M, ˜150 mg/kg) twice a day 0.5 hour prior to the challenge with OVA aerosol and 6 hours later without exceeding its maximally tolerated dose, which has been previously established to be 300-500 mg/kg. Both 3-CP and TPL were non-toxic when administered orally or via IP injection to untreated OVA-challenged mice for 22 days.

[6] = oral, 1 weight percent in chow, FIG. 3

CC1(C)CC(C(N)=O)C(C)(C)N1[O] (stereo not drawn) [3-CP, 3-Carbamoyl-2,2,5,5-tetramethyl-pyrrolidin-1-oxyl]
effect on inflammatory cell counts in BAL fluid ([1]; 3-CP oral 1 weight percent in chow during entire experiment, 4 weeks OVA challenge, FIGS. 15A and 15B): reduced inflammatory cell counts, and especially eosinophil counts | reducing BAL inflammatory cell counts, 3-CP compared with dexamethasone ([1]; 3-CP oral, dexamethasone 1 mg/kg IP before each challenge): at least as effective as dexamethasone | lung resistance, oral 3-CP in both periods compared with other regimens ([2]; oral 1 weight percent in chow during sensitization and challenge periods, FIG. 6): more effective than IP injection or intranasal instillation of 3-CP, oral administration of 3-CP during the sensitization period or challenge period alone, or treatment with dexamethasone | effect on methacholine-induced increase in lung resistance [2, 6]: suppressed methacholine-induced increase in lung resistance | lung resistance suppression, 3-CP compared with TPL [2, 6]: considerably more effective than TPL | maximally tolerated dose [3]: 300 to 500 mg/kg | reducing IL-13 level, oral 3-CP compared with intranasal 3-CP and IP dexamethasone ([4]; FIG. 7D and Table 1): more effective than intranasal instillation of 3-CP and IP injection of dexamethasone | IL-13 level ([4]; OVA IN-C: 3-CP intranasal during challenge): 1.99 ng/mg | IL-13 level ([4]; OVA IP-C: 3-CP intraperitoneal during challenge): 1.38 ng/mg | IL-13 level ([4]; OVA oral-C: 3-CP oral during challenge): 2.01 ng/mg | IL-13 level ([4]; OVA oral-S&C: 3-CP oral during sensitization and challenge): 1.67 ng/mg | IL-13 level ([4]; OVA oral-S: 3-CP oral during sensitization): 2.20 ng/mg | effect on OVA-induced increase in the level of IL-13 ([4]; lung tissue, FIG. 7D and Table 1): inhibited | modulating IL-13 level, oral compared with IP 3-CP ([4]; oral administration vs IP injection): consistently more effective than IP injection of 3-CP | toxicity [5]: non-toxic

Source: US10441568B2, “Nitroxide radicals for the treatment of diseases of the respiratory tract” (priority 2015, dated 2019)
